Results: ChEMBL document CHEMBL1649430, “Antimicrobial susceptibility of Mycoplasma pneumoniae isolates and molecular analysis of macrolide-resistant strains from Shanghai, China” (2009)
Converted amounts (≈) assume the structure as drawn.

Columns and labels:
[1] = tested on: Mycoplasmoides pneumoniae; assay: Antimicrobial activity against macrolide-resistant Mycoplasma pneumoniae clinical isolates obtained from bronchial aspirations expressing 23S rRNA A2063G mutant gene and P1 RFLP type I gene by broth microdilution method; type: functional
[2] = tested on: Mycoplasmoides pneumoniae; assay: Antimicrobial activity against Mycoplasma pneumoniae ATCC 15531 by broth microdilution method

| Structure (SMILES) | MIC [1] | MIC50 [1] | MIC90 [1] | MIC [2] |
| --- | --- | --- | --- | --- |
| CC[C@H]1OC(=O)[C@H](C)[C@@H](O[C@H]2C[C@@](C)(OC)[C@@H](O)[C@H](C)O2)[C@H](C)[C@@H](O[C@@H]2O[C@H](C)C[C@H](N(C)C)[C@H]2O)[C@](C)(O)C[C@@H](C)CN(C)[C@H](C)[C@@H](O)[C@]1(C)O [AZITHROMYCIN] | ≤ 7 ng/mL | 16 µg/mL (≈ 21.4 µM) | 64 µg/mL (≈ 85.4 µM) | ≤ 0.007 µg/mL |
| O=C(O)c1cn(C2CC2)c2cc(N3CCNCC3)c(F)cc2c1=O [CIPROFLOXACIN] | – | – | – | 0.25 µg/mL (≈ 0.754 µM) |
| CC[C@H]1OC(=O)[C@H](C)[C@@H](O[C@H]2C[C@@](C)(OC)[C@@H](O)[C@H](C)O2)[C@H](C)[C@@H](O[C@@H]2O[C@H](C)C[C@H](N(C)C)[C@H]2O)[C@](C)(OC)C[C@@H](C)C(=O)[C@H](C)[C@@H](O)[C@]1(C)O [CLARITHROMYCIN] | ≤ 7 ng/mL | 128 µg/mL (≈ 171 µM) | > 128 µg/mL | ≤ 0.007 µg/mL |
| C[C@H]1c2cccc(O)c2C(=O)C2=C(O)[C@]3(O)C(=O)C(C(N)=O)=C(O)[C@@H](N(C)C)[C@@H]3[C@@H](O)[C@@H]21.O [DOXYCYCLINE] | ≤ 7 ng/mL | 0.06 µg/mL | 0.125 µg/mL | 0.03 µg/mL |
| CC[C@H]1OC(=O)[C@H](C)[C@@H](O[C@H]2C[C@@](C)(OC)[C@@H](O)[C@H](C)O2)[C@H](C)[C@@H](O[C@@H]2O[C@H](C)C[C@H](N(C)C)[C@H]2O)[C@](C)(O)C[C@@H](C)C(=O)[C@H](C)[C@@H](O)[C@]1(C)O [ERYTHROMYCIN] | ≤ 7 ng/mL | > 128 µg/mL | > 128 µg/mL | ≤ 0.007 µg/mL |
| CO[C@@H]1[C@@H](O[C@@H]2O[C@H](C)[C@@H](O[C@H]3C[C@@](C)(O)[C@@H](OC(=O)CC(C)C)[C@H](C)O3)[C@H](N(C)C)[C@H]2O)[C@@H](CC=O)C[C@@H](C)[C@@H](O)/C=C/C=C/C[C@@H](C)OC(=O)C[C@H]1OC(C)=O [JOSAMYCIN] | ≤ 7 ng/mL | 2 µg/mL (≈ 2.42 µM) | 4 µg/mL (≈ 4.83 µM) | ≤ 0.007 µg/mL |
| C[C@H]1COc2c(N3CCN(C)CC3)c(F)cc3c(=O)c(C(=O)O)cn1c23.C[C@H]1COc2c(N3CCN(C)CC3)c(F)cc3c(=O)c(C(=O)O)cn1c23.O [LEVOFLOXACIN] | 15 ng/mL | 0.25 µg/mL | 0.5 µg/mL | 0.25 µg/mL |
| CN(C)c1ccc(O)c2c1C[C@H]1C[C@H]3[C@H](N(C)C)C(O)=C(C(N)=O)C(=O)[C@@]3(O)C(O)=C1C2=O [MINOCYCLINE] | ≤ 7 ng/mL | 0.06 µg/mL (≈ 0.131 µM) | 0.125 µg/mL (≈ 0.273 µM) | 0.06 µg/mL (≈ 0.131 µM) |
| COc1c(N2C[C@@H]3CCCN[C@@H]3C2)c(F)cc2c(=O)c(C(=O)O)cn(C3CC3)c12 [MOXIFLOXACIN] | – | – | – | 0.06 µg/mL (≈ 0.149 µM) |
| CN(C)[C@@H]1C(O)=C(C(N)=O)C(=O)[C@@]2(O)C(O)=C3C(=O)c4c(O)cccc4[C@@](C)(O)[C@H]3C[C@@H]12 [TETRACYCLINE] | 15 ng/mL (≈ 0.0338 µM) | 0.06 µg/mL (≈ 0.135 µM) | 0.125 µg/mL (≈ 0.281 µM) | 0.06 µg/mL (≈ 0.135 µM) |
